Results reported in US5776912A, “Lipophilic oligosaccharide antibiotic compositions” (Schering Corporation, priority 1996, dated 1998).
Structures can show the parent of a compound that is named as a salt. Where two headings read alike, the source gives them in different places.

Columns and labels:
[1] = pH of aqueous solutions formed with bases; assay type: physicochemical
[2] = test system: S. aureus 78100502; test: Mouse protection model, PD50 (Table 4), S. aureus 78100502; assay type: in vivo, Staphylococcus aureus (infection in CF1 mice); conditions: Staphylococcus aureus, drug IV, 20 × LD, 2.2 × 10^8 CFU/mouse IP
From the text: (§1) PD 50 Valves Showing Efficacy of Composition Containing the
(§2) Compound of Formula III Against Bacterial Infections^1 in CF1
(§3) ^1 Injections were by IP route
(§4) ^2 CFI mice are Charles River CFI, ca 20 g while male mice
(§5) ^4 PD50 Dosing routes for drugs: IV for A, B and C; SC for D in
(§6) ^5. Multiple of one LD100 (lethal dose to kill 100% of animals) of
(§7) organism given to mice. (Measure of severity of the infection.)
(§8) See Table 4 for PD50 values for the compositions of the compound of formula III including a preferred composition of the present invention (Drug B) compared to those for vancomycin (Drug C) and amikacin (drug D).

[3] = test system: enterococci resistant to vancomycin; test: microbe, parasite or virus in culture; assay type: cell-based
[4] = test system: E. faecalis 88032810; test: Mouse protection model, PD50 (Table 4), E. faecalis 88032810; assay type: in vivo, Enterococcus faecalis (infection in CF1 mice); conditions: read-out: PD50
From the text: as §1, §2, §3, §4, §5, §6, §7, §8

[5] = test system: E. faecalis 91031103 (Vancomycin resistant); test: Mouse protection model, PD50 (Table 4), vancomycin resistant E. faecalis 91031103; assay type: in vivo, Enterococcus faecalis (infection in CF1 mice); conditions: Enterococcus faecalis, read-out: PD50
From the text: as §1, §2, §3, §4, §5, §6, §7, §8

[6] = test system: S. aureus 85111205; test: Mouse protection model, PD50 (Table 4), S. aureus 85111205; assay type: in vivo, Staphylococcus aureus (infection in CF1 mice); conditions: Staphylococcus aureus, 85111205, iv, read-out: PD50
From the text: as §1, §2, §3, §4, §5, §6, §7, §8

[7] = Formation of aqueous solutions; assay type: physicochemical; conditions: in water
[8] = test system: Enterococcus faecalis; test: Agar dilution MIC, Enterococcus faecalis; assay type: cell-based; conditions: printed for E. faecalis and E. faecium together
[9] = test system: bacteria; assay type: cell-based
[10] = test system: Borrelia burgdorferi; test: MIC, Borrelia burgdorferi; assay type: cell-based
[11] = test system: methicillin-susceptible staphylococci; test: Agar dilution MIC, methicillin-susceptible staphylococci; assay type: cell-based
[12] = test system: L. longbeacheae; test: MIC, L. longbeacheae; assay type: cell-based
[13] = test system: gram-negative bacteria; test: Agar dilution MIC, gram-negative bacteria; assay type: cell-based
[14] = test system: Enterococcus faecium; test: Agar dilution MIC, Enterococcus faecium; assay type: cell-based; conditions: printed for E. faecalis and E. faecium together
[15] = test system: Trichomonas vaginalis; test: MIC, Trichomonas vaginalis; assay type: cell-based
[16] = test system: various strains of streptococci; test: Agar dilution MIC, streptococci; assay type: cell-based
[17] = test system: various clinical and laboratory strains of staphylococci; test: Bactericidal activity, staphylococci; assay type: cell-based
[18] = test system: Legionella pneumophila; assay type: cell-based
[19] = test system: methicillin-resistant staphylococci; assay type: cell-based
[20] = test system: Mycoplasma sp.; test: MIC, Mycoplasma sp.; assay type: cell-based
[21] = agar dilution, Mueller-Hinton agar

Compound: NCCCC[C@H](N)C(=O)O [Lysine]
- pH of aqueous solution [1]: less than 9.3

Compound: CN[C@H](CC(C)C)C(=O)N[C@H]1C(=O)N[C@@H](CC(N)=O)C(=O)N[C@H]2C(=O)N[C@H]3C(=O)N[C@H](C(=O)N[C@H](C(=O)O)c4cc(O)cc(O)c4-c4cc3ccc4O)[C@H](O)c3ccc(c(Cl)c3)Oc3cc2cc(c3O[C@@H]2O[C@H](CO)[C@@H](O)[C@H](O)[C@H]2O[C@H]2C[C@](C)(N)[C@H](O)[C@H](C)O2)Oc2ccc(cc2Cl)[C@H]1O [Drug C, Vancomycin HCl]
- ED50 [2]: 6 mg/kg
- MIC ([3]; read-out: MICs): > 128 µg/mL
- ED50 ([4]; Enterococcus faecalis, 88032810, iv): 10 mg/kg
- ED50 ([5]; iv): 100 mg/kg
- ED50 [6]: 26 mg/kg

Compound: NCC[C@H](O)C(=O)N[C@@H]1C[C@H](N)[C@@H](O[C@H]2O[C@H](CN)[C@@H](O)[C@H](O)[C@H]2O)[C@H](O)[C@H]1O[C@H]1O[C@H](CO)[C@@H](O)[C@H](N)[C@H]1O [Drug D, Amikacin]
- ED50 ([4]; Enterococcus faecalis, 88032810, drug SC, 10 × LD, 9.7 × 10^8 CFU/mouse IP): 115 mg/kg
- ED50 ([5]; drug SC, 1.7 × LD, 1.5 × 10^9 CFU/mouse IP): 49 mg/kg

Compound: [Ca+2].[OH-].[OH-] [calcium hydroxide]
- formation of aqueous solution [7]: did not form aqueous solutions

Compound: 56-deacetyl-57-demethyl-45-O-de(2-methyl-1 -oxopropyl)-12-O-(2,3,6-trideoxy-3-C-methyl-4-O-methyl-3-nitro-α-L-arabino-hexopyransoyl)-flambamycin 56-(2,4-dihydroxy-6-methylbenzoate) [compound of Formula III]
- GMM (geometric mean MIC) [8]: 0.49 µg/mL
- cross resistance with other antibiotics [9]: No cross resistance with other antibiotics was observed
- MICs [10]: < 0.49 µg/mL
- GMM (geometric mean MIC) [11, 21]: 0.5 µg/mL
- potency relative to vancomycin ([11]; more potent than vancomycin): 2 fold
- MICs [12]: 2.5 µg/mL
- GMM (geometric mean MIC) [13]: > 760 µg/mL
- GMM (geometric mean MIC) [14]: 0.49 µg/mL
- MICs [15]: > 192 µg/mL
- activity (in words) ([3]; enterococci resistant to vancomycin): good activity
- MICs [16]: < 0.5 µg/mL
- bactericidal activity [17]: moderate bactericidal activity
- MICs [18]: 2.5 µg/mL
- GMM (geometric mean MIC) [19, 21]: 0.1 µg/mL
- potency relative to vancomycin ([19]; more potent than vancomycin): 2 fold
- MICs [20]: 200 µg/mL

Compound: [Ba+2].[OH-].[OH-] [barium hydroxide]
- formation of aqueous solution [7]: did not form aqueous solutions
